Data from PubChem BioAssay AID1259407 (Chemical Carcinogenesis Research Information System (CCRIS), 2018).
Active and inactive are the calls of the source. No rule for the calls is given here.

System: CCRIS mutagenicity, Ames/micronucleus/aberration tests
Experiment: CCRIS mutagenicity studies
[1] = Test System: AMES SALMONELLA TYPHIMURIUM, Strain/Indicator: TA98, Metabolic Activation: NONE, Method: PREINCUBATION
[2] = Test System: AMES SALMONELLA TYPHIMURIUM, Strain/Indicator: TA100, Metabolic Activation: NONE, Method: PREINCUBATION
[3] = Test System: AMES SALMONELLA TYPHIMURIUM, Strain/Indicator: TA1535, Metabolic Activation: NONE, Method: PREINCUBATION
[4] = Test System: AMES SALMONELLA TYPHIMURIUM, Strain/Indicator: TA1537, Metabolic Activation: NONE, Method: PREINCUBATION

C[N+](C)(C)CCO
mutagenic call [1]: inactive; negative
mutagenic call (Test System: AMES SALMONELLA TYPHIMURIUM, Strain/Indicator: TA98, Metabolic Activation: RAT, LIVER, S-9, PHENOBARBITAL AND BETA-NAPHTHOFLAVONE, Method: PREINCUBATION): inactive; negative
mutagenic call [2]: inactive; negative
mutagenic call (Test System: AMES SALMONELLA TYPHIMURIUM, Strain/Indicator: TA100, Metabolic Activation: RAT, LIVER, S-9, PHENOBARBITAL AND BETA-NAPHTHOFLAVONE, Method: PREINCUBATION): inactive; negative
mutagenic call (Test System: AMES SALMONELLA TYPHIMURIUM, Strain/Indicator: TA102, Metabolic Activation: NONE, Method: PREINCUBATION): inactive; negative
mutagenic call (Test System: AMES SALMONELLA TYPHIMURIUM, Strain/Indicator: TA102, Metabolic Activation: RAT, LIVER, S-9, PHENOBARBITAL AND BETA-NAPHTHOFLAVONE, Method: PREINCUBATION): inactive; negative
mutagenic call (Test System: AMES SALMONELLA TYPHIMURIUM, Strain/Indicator: TA104, Metabolic Activation: NONE, Method: PREINCUBATION): inactive; negative
mutagenic call (Test System: AMES SALMONELLA TYPHIMURIUM, Strain/Indicator: TA104, Metabolic Activation: RAT, LIVER, S-9, PHENOBARBITAL AND BETA-NAPHTHOFLAVONE, Method: PREINCUBATION): inactive; negative
mutagenic call [3]: inactive; negative
mutagenic call (Test System: AMES SALMONELLA TYPHIMURIUM, Strain/Indicator: TA1535, Metabolic Activation: RAT, LIVER, S-9, PHENOBARBITAL AND BETA-NAPHTHOFLAVONE, Method: PREINCUBATION): inactive; negative
mutagenic call [4]: inactive; negative
mutagenic call (Test System: AMES SALMONELLA TYPHIMURIUM, Strain/Indicator: TA1537, Metabolic Activation: RAT, LIVER, S-9, PHENOBARBITAL AND BETA-NAPHTHOFLAVONE, Method: PREINCUBATION): inactive; negative
mutagenic call (Test System: E. COLI, Strain/Indicator: WP2UVRA/PKM101, Metabolic Activation: NONE, Method: PREINCUBATION): inactive; negative
mutagenic call (Test System: E. COLI, Strain/Indicator: WP2UVRA/PKM101, Metabolic Activation: RAT, LIVER, S-9, PHENOBARBITAL AND BETA-NAPHTHOFLAVONE, Method: PREINCUBATION): inactive; negative
mutagenic call (Test System: E. COLI, Strain/Indicator: WP2UVRA, Metabolic Activation: NONE, Method: PREINCUBATION): inactive; negative
mutagenic call (Test System: E. COLI, Strain/Indicator: WP2UVRA, Metabolic Activation: RAT, LIVER, S-9, PHENOBARBITAL AND BETA-NAPHTHOFLAVONE, Method: PREINCUBATION): inactive; negative

COc1cc(O)c2c(=O)c3cc(O)ccc3oc2c1
mutagenic call (Test System: AMES SALMONELLA TYPHIMURIUM, Strain/Indicator: TA97, Metabolic Activation: RAT, LIVER, S-9, PHENOBARBITAL AND 5,6-BENZOFLAVONE, Method: PREINCUBATION): active; positive
mutagenic call (Test System: AMES SALMONELLA TYPHIMURIUM, Strain/Indicator: TA98, Metabolic Activation: RAT, LIVER, S-9, PHENOBARBITAL AND 5,6-BENZOFLAVONE, Method: PREINCUBATION): inactive; negative
mutagenic call (Test System: AMES SALMONELLA TYPHIMURIUM, Strain/Indicator: TA100, Metabolic Activation: RAT, LIVER, S-9, PHENOBARBITAL AND 5,6-BENZOFLAVONE, Method: PREINCUBATION): inactive; negative
mutagenic call (Test System: AMES SALMONELLA TYPHIMURIUM, Strain/Indicator: TA2637, Metabolic Activation: RAT, LIVER, S-9, 5,6-BENZOFLAVONE AND/OR SODIUM PHENOBARBITAL, Method: PREINCUBATION): active; positive
mutagenic call (Test System: AMES SALMONELLA TYPHIMURIUM, Strain/Indicator: TA2637, Metabolic Activation: RAT, LIVER, S-9, PHENOBARBITAL AND 5,6-BENZOFLAVONE, Method: PREINCUBATION): active; positive
mutagenic call (Test System: AMES SALMONELLA TYPHIMURIUM, Strain/Indicator: TA2637, Metabolic Activation: RAT, LIVER, S-105, 5,6-BENZOFLAVONE AND/OR SODIUM PHENOBARBITAL, Method: PREINCUBATION): inactive; negative

CCOC(=O)N(N=O)C(CCC=O)c1cccnc1 (centres undefined)
mutagenic call [2]: active; positive

C[Si]1(C)O[Si](C)(C)O[Si](C)(C)O1
mutagenic call (Test System: AMES SALMONELLA TYPHIMURIUM, Strain/Indicator: TA98, Metabolic Activation: NONE, Method: STANDARD PLATE): inactive; negative
mutagenic call (Test System: AMES SALMONELLA TYPHIMURIUM, Strain/Indicator: TA98, Metabolic Activation: RAT LIVER S-9, AROCLOR 1254, Method: STANDARD PLATE): inactive; negative
mutagenic call (Test System: AMES SALMONELLA TYPHIMURIUM, Strain/Indicator: TA100, Metabolic Activation: NONE, Method: STANDARD PLATE): inactive; negative
mutagenic call (Test System: AMES SALMONELLA TYPHIMURIUM, Strain/Indicator: TA100, Metabolic Activation: RAT LIVER S-9, AROCLOR 1254, Method: STANDARD PLATE): inactive; negative
mutagenic call (Test System: AMES SALMONELLA TYPHIMURIUM, Strain/Indicator: TA1535, Metabolic Activation: NONE, Method: STANDARD PLATE): inactive; negative
mutagenic call (Test System: AMES SALMONELLA TYPHIMURIUM, Strain/Indicator: TA1535, Metabolic Activation: RAT LIVER S-9, AROCLOR 1254, Method: STANDARD PLATE): inactive; negative
mutagenic call (Test System: AMES SALMONELLA TYPHIMURIUM, Strain/Indicator: TA1537, Metabolic Activation: NONE, Method: STANDARD PLATE): inactive; negative
mutagenic call (Test System: AMES SALMONELLA TYPHIMURIUM, Strain/Indicator: TA1537, Metabolic Activation: RAT LIVER S-9, AROCLOR 1254, Method: STANDARD PLATE): inactive; negative
mutagenic call (Test System: AMES SALMONELLA TYPHIMURIUM, Strain/Indicator: TA1538, Metabolic Activation: NONE, Method: STANDARD PLATE): inactive; negative
mutagenic call (Test System: AMES SALMONELLA TYPHIMURIUM, Strain/Indicator: TA1538, Metabolic Activation: RAT LIVER S-9, AROCLOR 1254, Method: STANDARD PLATE): inactive; negative
mutagenic call (Test System: E. COLI, Strain/Indicator: P3078 POLA, Metabolic Activation: NONE, Method: SPOT TEST): inactive; negative
mutagenic call (Test System: E. COLI, Strain/Indicator: P3078 POLA, Metabolic Activation: RAT LIVER S-9, AROCLOR 1254, Method: SPOT TEST): inactive; negative
mutagenic call (Test System: E. COLI, Strain/Indicator: W3110, Metabolic Activation: NONE, Method: SPOT TEST): inactive; negative
mutagenic call (Test System: E. COLI, Strain/Indicator: W3110, Metabolic Activation: RAT LIVER S-9, AROCLOR 1254, Method: SPOT TEST): inactive; negative
mutagenic call (Test System: MOUSE LYMPHOMA, Strain/Indicator: L5178Y (TK+/TK-), Metabolic Activation: NONE, Method: SUSPENSION/PLATE): inactive; negative
mutagenic call (Test System: MOUSE LYMPHOMA, Strain/Indicator: L5178Y (TK+/TK-), Metabolic Activation: RAT, LIVER, S-9, Method: SUSPENSION/PLATE): inactive; negative

O=S(=O)(O)NO
mutagenic call (Test System: AMES SALMONELLA TYPHIMURIUM, Strain/Indicator: G46, Metabolic Activation: RAT, LIVER, S-9, AROCLOR 1254, Method: STANDARD PLATE): inactive; negative
mutagenic call (Test System: AMES SALMONELLA TYPHIMURIUM, Strain/Indicator: TA100, Metabolic Activation: RAT, LIVER, S-9, AROCLOR 1254, Method: STANDARD PLATE): inactive; negative

CCCCNCC
mutagenic call (Test System: AMES SALMONELLA TYPHIMURIUM, Strain/Indicator: TA98, Metabolic Activation: HAMSTER, LIVER, S-9, AROCLOR 1254 (10%), Method: PREINCUBATION): inactive; negative
mutagenic call [1]: inactive; negative
mutagenic call (Test System: AMES SALMONELLA TYPHIMURIUM, Strain/Indicator: TA98, Metabolic Activation: RAT, LIVER, S-9, AROCLOR 1254 (10%), Method: PREINCUBATION): inactive; negative
mutagenic call (Test System: AMES SALMONELLA TYPHIMURIUM, Strain/Indicator: TA100, Metabolic Activation: HAMSTER, LIVER, S-9, AROCLOR 1254 (10%), Method: PREINCUBATION): inactive; negative
mutagenic call [2]: inactive; negative
mutagenic call (Test System: AMES SALMONELLA TYPHIMURIUM, Strain/Indicator: TA100, Metabolic Activation: RAT, LIVER, S-9, AROCLOR 1254 (10%), Method: PREINCUBATION): inactive; negative
mutagenic call (Test System: AMES SALMONELLA TYPHIMURIUM, Strain/Indicator: TA1535, Metabolic Activation: HAMSTER, LIVER, S-9, AROCLOR 1254 (10%), Method: PREINCUBATION): inactive; negative
mutagenic call [3]: inactive; negative
mutagenic call (Test System: AMES SALMONELLA TYPHIMURIUM, Strain/Indicator: TA1535, Metabolic Activation: RAT, LIVER, S-9, AROCLOR 1254 (10%), Method: PREINCUBATION): inactive; negative
mutagenic call (Test System: AMES SALMONELLA TYPHIMURIUM, Strain/Indicator: TA1537, Metabolic Activation: HAMSTER, LIVER, S-9, AROCLOR 1254 (10%), Method: PREINCUBATION): inactive; negative
mutagenic call [4]: inactive; negative
mutagenic call (Test System: AMES SALMONELLA TYPHIMURIUM, Strain/Indicator: TA1537, Metabolic Activation: RAT, LIVER, S-9, AROCLOR 1254 (10%), Method: PREINCUBATION): inactive; negative

Cc1c2c3c(cccc3c3ccccc13)-c1ccccc1-2
mutagenic call (Test System: AMES SALMONELLA TYPHIMURIUM, Strain/Indicator: TA100, Metabolic Activation: RAT, LIVER, S-9, AROCLOR 1254): active; positive
